From ChEMBL document CHEMBL1127920, “Synthesis and biological activity of 14-hydroxydocetaxel” (Bioorg Med Chem Lett, 1994)

What was measured:
Type in all cases: functional, cell-based
[1] = test system: A121; assay: Cytotoxicity was evaluated in vitro against A121 (ovarian carcinoma) human tumor cell lines
[2] = test system: A549; assay: Cytotoxicity was evaluated in vitro against A549 (non-small cell lung carcinoma) human tumor cell lines
[3] = test system: HT-29; assay: Cytotoxicity was evaluated in vitro against HT-29 (colon carcinoma) human tumor cell lines
[4] = test system: MCF7; assay: Cytotoxicity was evaluated in vitro against MCF-7 (mammary carcinoma) human tumor cell lines

Row | Compound | IC50 [1] | IC50 [2] | IC50 [3] | IC50 [4]
1 | CC(=O)O[C@@]12CO[C@@H]1C[C@H](O)[C@@]1(C)C(=O)[C@H](O)C3=C(C)[C@@H](OC(=O)[C@H](O)[C@@H](NC(=O)OC(C)(C)C)c4ccccc4)[C@@H]4OC(C)(C)O[C@]4([C@@H](OC(=O)c4ccccc4)C12)C3(C)C (some centres not stated) | 46 nM | 18 nM | 21 nM | 34 nM
2 | CC(=O)O[C@@]12CO[C@@H]1C[C@H](O)[C@@]1(C)C(=O)[C@H](O)C3=C(C)[C@@H](OC(=O)[C@H](O)[C@@H](NC(=O)OC(C)(C)C)c4ccccc4)[C@H](O)[C@@](O)([C@@H](OC(=O)c4ccccc4)C12)C3(C)C (some centres not stated) | 3.3 nM | 0.8 nM | 2.1 nM | 1.9 nM
3 | CC(=O)O[C@@]12CO[C@@H]1C[C@H](O)[C@@]1(C)C(=O)[C@H](O)C3=C(C)[C@@H](OC(=O)[C@H](O)[C@@H](NC(=O)OC(C)(C)C)c4ccccc4)C[C@@](O)([C@@H](OC(=O)c4ccccc4)[C@H]21)C3(C)C [DOCETAXEL] | 1.2 nM | 1 nM | 1.2 nM | 1 nM
